# In patent US8188135B2, “Compounds as cannabinoid receptor ligands” (priority 2008, dated 2012):
# Read-outs that look alike come from different tables or passages of the source.
# Legend:
# rat CB2 = biological target: T1, rat CB2 (Rattus norvegicus, UniProt Q9QZN9); experiment: rat CB2 radioligand binding assay ([3H]CP 55,940 competition); set-up: expressed in transfected cells; host or cells: HEK293; details: HEK293 membranes, 0.5 nM [3H]CP 55,940
# T1 sequence (Q9QZN9 1-360): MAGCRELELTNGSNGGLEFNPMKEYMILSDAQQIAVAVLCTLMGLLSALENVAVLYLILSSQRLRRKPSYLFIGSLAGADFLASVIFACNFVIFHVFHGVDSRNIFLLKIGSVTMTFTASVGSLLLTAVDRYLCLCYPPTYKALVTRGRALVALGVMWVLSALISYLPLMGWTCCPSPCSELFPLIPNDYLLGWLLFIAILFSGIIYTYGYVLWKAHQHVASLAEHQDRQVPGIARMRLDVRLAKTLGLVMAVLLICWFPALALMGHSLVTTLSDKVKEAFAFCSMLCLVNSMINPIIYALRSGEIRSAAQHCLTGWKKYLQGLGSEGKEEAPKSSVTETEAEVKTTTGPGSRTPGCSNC
# Method: (§1) The CB1 and CB2 radioligand binding assays described herein are utilized to ascertain the affinity of compounds of the present application for binding to CB2 relative to CB1 receptors.
# HEK293 cells stably expressing rat CB2 receptors were grown until a confluent monolayer was formed. Briefly, the cells were harvested and homogenized in TE buffer (50 mM Tris-HCl, 1 mM MgCl2, and 1 mM EDTA) using a polytron for 2×10 second bursts in the presence of protease inhibitors, followed by centrifugation at 45,000×g for 20 minutes. The final membrane pellet was re-homogenized in storage buffer (50 mM Tris-HCl, 1 mM MgCl2, and 1 mM EDTA and 10% sucrose) and frozen at −78° C. until used. Saturation binding reactions were initiated by the addition of membrane preparation (protein concentration of 20 μg/well for rat CB2) into wells of a deep well plate containing [^3H]CP 55,940 (120 Ci/mmol, a nonselective CB agonist commercially available from Tocris) in assay buffer (50 mM Tris, 2.5 mM EDTA, 5 mM MgCl2, and 0.5 mg/mL fatty acid free BSA, pH 7.4). After 45 min incubation at 30° C., binding reaction was terminated by the addition of […] of cold assay buffer followed by rapid vacuum filtration through a UniFilter-96 GF/C filter plates (pre-soaked in 1 mg/mL BSA for 2 hours). The bound activity was counted in a TopCount using Microscint-20. Saturation experiments were conducted with twelve concentrations of [^3H]CP 55,940 ranging from 0.01 to 8 nM. Competition experiments were conducted with 0.5 nM [^3H]CP 55,940 and five concentrations of displacing ligands selected from the range of 0.01 nM to 10 μM. The addition of 10 μM unlabeled CP 55,940 (Tocris, Ellisville, Mo.) was used to assess nonspecific binding.
# human CB2 receptors = biological target: T2, human CB2 receptors (Homo sapiens, UniProt P34972); experiment: human CB2 radioligand binding assay ([3H]CP 55,940 competition); details: HEK293 membranes, 0.5 nM [3H]CP 55,940
# T2 construct: expressed in transfected cells; host or cells: HEK293
# T2 sequence (P34972 whole entry): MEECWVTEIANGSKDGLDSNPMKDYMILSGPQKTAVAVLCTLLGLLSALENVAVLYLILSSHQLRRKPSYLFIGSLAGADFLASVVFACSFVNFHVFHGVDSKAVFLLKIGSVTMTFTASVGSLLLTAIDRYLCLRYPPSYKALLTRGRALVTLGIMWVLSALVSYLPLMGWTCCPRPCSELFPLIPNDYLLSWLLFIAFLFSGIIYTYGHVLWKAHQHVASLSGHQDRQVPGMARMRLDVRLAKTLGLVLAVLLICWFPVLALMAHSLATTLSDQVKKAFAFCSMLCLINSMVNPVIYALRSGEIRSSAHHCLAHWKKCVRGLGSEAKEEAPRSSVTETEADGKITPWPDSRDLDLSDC
# Method: as §1
# HEK293 cells stably expressing human CB2 receptors were grown until a confluent monolayer was formed. Briefly, the cells were harvested and homogenized in TE buffer (50 mM Tris-HCl, 1 mM MgCl2, and 1 mM EDTA) using a polytron for 2×10 second bursts in the presence of protease inhibitors, followed by centrifugation at 45,000×g for 20 minutes. The final membrane pellet was re-homogenized in storage buffer (50 mM Tris-HCl, 1 mM MgCl2, and 1 mM EDTA and 10% sucrose) and frozen at −78° C. until used. Saturation binding reactions were initiated by the addition of membrane preparation (protein concentration of 5 μg/well for human CB2) into wells of a deep well plate containing [^3H]CP 55,940 (120 Ci/mmol, a nonselective CB agonist commercially available from Tocris) in assay buffer (50 mM Tris, 2.5 mM EDTA, 5 mM MgCl2, and 0.5 mg/mL fatty acid free BSA, pH 7.4). After 90 min incubation at 30° C., binding reaction was terminated by the addition of 300 μL/well of cold assay buffer followed by rapid vacuum filtration through a UniFilter-96 GF/C filter plates (pre-soaked in 1 mg/mL BSA for 2 hours). The bound activity was counted in a TopCount using Microscint-20. Saturation experiments were conducted with twelve concentrations of [^3H]CP 55,940 ranging from 0.01 to 8 nM. Competition experiments were conducted with 0.5 nM [^3H]CP 55,940 and five concentrations (0.01 nM to 10 μM) of displacing ligands. The addition of 10 μM unlabeled CP 55,940 (Tocris, Ellisville, Mo.) was used to assess nonspecific binding.
Structure (SMILES),"Ki (rat CB2; rat CB2 (Ki, nM)) [nM]","Ki (human CB2 receptors; human CB2 (Ki, nM)) [nM]",Ki (rat CB2; read-out: rat CB2 (Ki)) [nM],Ki (human CB2 receptors; read-out: human CB2 (Ki)) [nM]
"C=CC(O)COc1ccc(C(F)(F)F)cc1C(=O)/N=c1\cc(C(C)(C)C)n(C)n1C[C@H]1CCCO1 (stereo partly drawn) [Example 101, N-{(3E)-5-tert-butyl-1-methyl-2-[(2R)-tetrahydrofuran-2-ylmethyl]-1,2-dihydro-3 H-pyrazol-3-ylidene}-2-[(2-hydroxybut-3-enyl)oxy]-5-(trifluoromethyl)benzamide]",2.8,1,,
"CC[C@H](O)COc1ccc(C(F)(F)F)cc1C(=O)/N=c1\cc(C(C)(C)C)n(C)n1C[C@H]1CCCO1 [Example 109, N-{(3E)-5-tert-butyl-1-methyl-2-[(2R)-tetrahydrofuran-2-ylmethyl]-1,2-dihydro-3H-pyrazol-3-ylidene}-2-{[(2S)-2-hydroxybutyl]oxy}-5-(trifluoromethyl)benzamide]",1.2,1.3,,
CO[C@H]1CCO[C@@H]1COc1ccc(C(F)(F)F)cc1C(=O)/N=c1\cc(C(C)(C)C)n(C)n1C[C@H]1CCCO1 [Example 22],,,424,> 1000
"CN1CCC[C@H]1COc1ccc(C(F)(F)F)cc1C(=O)/N=c1\ccc(C(C)(C)C)cn1C[C@H]1CCCO1 [Example 59, N-[(2E)-5-tert-butyl-1-[(2R)-tetrahydrofuran-2-ylmethyl]pyridin-2(1H)-ylidene]-2-{[(2S)-1-methylpyrrolidin-2-yl]methoxy}-5-(trifluoromethyl)benzamide]",69,294,,
"C[C@H](c1ccccc1)N1C[C@@H](COc2ccc(C(F)(F)F)cc2C(=O)/N=c2\cc(C(C)(C)C)n(C)n2C[C@H]2CCCO2)OC1=O [Example 44, N-{(3E)-5-tert-butyl-1-methyl-2-[(2R)-tetrahydrofuran-2-ylmethyl]-1,2-dihydro-3H-pyrazol-3-ylidene}-2-({(5 S)-2-oxo-3-[(1R)-1-phenylethyl]-1,3-oxazolidin-5-yl}methoxy)-5-(trifluoromethyl)benzamide]",408,> 1000,,
"Cn1c(C(C)(C)C)c/c(=N\C(=O)c2cc(C(F)(F)F)ccc2OCC(C)(C)O)n1CC1CCOCC1 [Example 95, N-[(3E)-5-tert-butyl-1-methyl-2-(tetrahydro-2H-pyran-4-ylmethyl)-1,2-dihydro-3 H-pyrazol-3-ylidene]-2-(2-hydroxy-2-methylpropoxy)-5-(trifluoromethyl)benzamide]",,,331,> 1000
"CCCCn1oc(C(C)(C)C)c/c1=N\C(=O)c1cc(C(F)(F)F)ccc1OCC(C)(C)O [Example 100, N-[(3E)-2-butyl-5-tert-butylisoxazol-3(2H)-ylidene]-2-(2-hydroxy-2-methylpropoxy)-5-(trifluoromethyl)benzamide]",1.3,1.7,,
"Cn1c(C(C)(C)C)c/c(=N\C(=O)c2cc(C(F)(F)F)ccc2OC[C@@H]2CCN2S(C)(=O)=O)n1C[C@H]1CCCO1 [Example 67, N-{(3E)-5-tert-butyl-1-methyl-2-[(2R)-tetrahydrofuran-2-ylmethyl]-1,2-dihydro-3H-pyrazol-3-ylidene}-2-{[(2S)-1-(methylsulfonyl)azetidin-2-yl]methoxy}-5-(trifluoromethyl)benzamide]",70,> 1000,,
"CCCn1/c(=N/C(=O)c2cc(C(F)(F)F)ccc2OCC(C)(C)O)cc(C(C)(C)C)n1C [Example 125, N-[(3E)-5-tert-butyl-1-methyl-2-propyl-1,2-dihydro-3H-pyrazol-3-ylidene]-2-(2-hydroxy-2-methylpropoxy)-5-(trifluoromethyl)benzamide]",86,,,211
"CN1CCC[C@H]1COc1ccc(C(F)(F)F)cc1C(=O)/N=C1\OC(C(C)(C)C)CN1C[C@H]1CCCO1 (stereo partly drawn) [Example 73, N-{(2Z)-5-tert-butyl-3-[(2R)-tetrahydrofuran-2-ylmethyl]-1,3-oxazolidin-2-ylidene}-2-{[(2S)-1-methylpyrrolidin-2-yl]methoxy}-5-(trifluoromethyl)benzamide]",,,230,291
"CCC(C)(O)COc1ccc(C(F)(F)F)cc1C(=O)/N=c1\cc(C(C)(C)C)n(C)n1C[C@H]1CCCO1 (stereo partly drawn) [Example 110, N-{(3E)-5-tert-butyl-1-methyl-2-[(2R)-tetrahydrofuran-2-ylmethyl]-1,2-dihydro-3H-pyrazol-3-ylidene}-2-(2-hydroxy-2-methylbutoxy)-5-(trifluoromethyl)benzamide]",1.6,3.5,,
"COCCCn1/c(=N/C(=O)c2cc(C(F)(F)F)ccc2OCC(C)(C)O)cc(C(C)(C)C)n1C [Example 122, N-[(3E)-5-tert-butyl-2-(3-methoxypropyl)-1-methyl-1,2-dihydro-3H-pyrazol-3-ylidene]-2-(2-hydroxy-2-methylpropoxy)-5-(trifluoromethyl)benzamide]",27,91,,
"CCCCn1nc(C(C)(C)C)s/c1=N\C(=O)c1cc(C(F)(F)F)ccc1OCC(C)(C)O [Example 84, N-[(2Z)-3-butyl-5-tert-butyl-1,3,4-thiadiazol-2(3H)-ylidene]-2-(2-hydroxy-2-methylpropoxy)-5-(trifluoromethyl)benzamide]",1.5,1.8,,
"Cn1c(C(C)(C)C)c/c(=N\C(=O)c2cc(C(F)(F)F)ccc2OC[C@@H]2CCCN2S(C)(=O)=O)n1C[C@H]1CCCO1 [Example 61, N-{(3E)-5-tert-butyl-1-methyl-2-[(2R)-tetrahydrofuran-2-ylmethyl]-1,2-dihydro-3 H-pyrazol-3-ylidene}-2-{[(2S)-1-(methylsulfonyl)pyrrolidin-2-yl]methoxy}-5-(trifluoromethyl)benzamide]",433,> 1000,,
"CC(C)(O)COc1ccc(C(F)(F)F)cc1C(=O)/N=c1\sc(C(C)(C)C)nn1CC1(C)COC1 [Example 97, N-[(2Z)-5-tert-butyl-3-[(3-methyloxetan-3-yl)methyl]-1,3,4-thiadiazol-2(3 H)-ylidene]-2-(2-hydroxy-2-methylpropoxy)-5-(trifluoromethyl)benzamide]",13,31.6,,
"CN(C[C@@H]1CCCO1)c1ccc(C(F)(F)F)cc1C(=O)/N=c1\cc(C(C)(C)C)n(C)n1C[C@H]1CCCO1 [Example 26, N-{(3E)-5-tert-butyl-1-methyl-2-[(2R)-tetrahydrofuran-2-ylmethyl-]-1,2-dihydro-3H-pyrazol-3-ylidene}-2-{methyl[(2S)-tetrahydrofuran-2-ylmethyl]amino}-5-(trifluoromethyl)benzamide]",343,> 1000,,
"Cn1c(C(C)(C)C)c/c(=N\C(=O)c2cc(C(F)(F)F)ccc2OCC2CN(S(C)(=O)=O)C2)n1C[C@H]1CCCO1 [Example 54, N-{(3E)-5-tert-butyl-1-methyl-2-[(2R)-tetrahydrofuran-2-ylmethyl]-1,2-dihydro-3H-pyrazol-3-ylidene}-2-{[1-(methylsulfonyl)azetidin-3-yl]methoxy}-5-(trifluoromethyl)benzamide]",71,,,192
